Assay results reported in ChEMBL document CHEMBL1201862, “PubChem BioAssay data set” (2004).
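Compound exposure: 48 hours, 5 concentrations, 96-well plates. GI50 marks 50% less growth.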 Active and inactive are the calls of the source. Rule as the data show it: active = GI50 up to about 1.1 µM and inactive = higher.

Columns and labels:
Assay in all cases: growth of human tumour cells (NCI), 48 h
[1] = test system: A498
[2] = test system: BT-549
[3] = test system: HOP-92
[4] = test system: Hs-578T
[5] = test system: K562
[6] = test system: KM12
[7] = test system: M14
[8] = test system: NCI-H23
[9] = test system: OVCAR-8
[10] = test system: RPMI-8226
[11] = test system: SK-MEL-5
[12] = test system: SN12C
[13] = test system: SNB-19
[14] = test system: T47D
[15] = test system: TK-10
[16] = test system: SR

| SMILES | GI50 [1] | GI50 [2] | GI50 [3] | GI50 [4] | GI50 [5] | GI50 [6] | GI50 [7] | GI50 [8] | GI50 [9] | GI50 [10] | GI50 [11] | GI50 [12] | GI50 [13] | GI50 [14] | GI50 [15] | GI50 [16] |
| --- | --- | --- | --- | --- | --- | --- | --- | --- | --- | --- | --- | --- | --- | --- | --- | --- |
| COc1cc2c(cc1OC)C(=O)/C(=C/c1cc(C)cc(C)c1)C2 | 0.131 µM (active) | 11.3 µM (inactive) | 3.29 µM (inactive) | 0.538 µM (active) | 0.0232 µM (active) | < 0.0203 µM (active) | 0.148 µM (active) | 0.313 µM (active) | 0.175 µM (active) | 0.129 µM (active) | 0.0239 µM (active) | 0.318 µM (active) | 1.1 µM (active) | 0.883 µM (active) | 21.1 µM (inactive) | – |
| CC1(C)CC[C@]2(C)CC[C@]3(C)C(=CC[C@@H]4[C@@]5(C)CCC(=O)C(C)(C)[C@@H]5[C@H](O)C[C@]43C)[C@@H]2C1 | 17.3 µM (inactive) | 20.5 µM (inactive) | 17.5 µM (inactive) | 19.5 µM (inactive) | – | 19.5 µM (inactive) | 19 µM (inactive) | 19.5 µM (inactive) | 18.9 µM (inactive) | 23 µM (inactive) | 17.4 µM (inactive) | 15.1 µM (inactive) | 15.3 µM (inactive) | 17.3 µM (inactive) | 16.5 µM (inactive) | – |
| CN1C2CCC1CC(C)(O)C2 (configuration not stated) | – | > 100 µM (inactive) | – | – | > 100 µM (inactive) | > 100 µM (inactive) | > 100 µM (inactive) | > 100 µM (inactive) | > 100 µM (inactive) | > 100 µM (inactive) | – | > 100 µM (inactive) | > 100 µM (inactive) | > 100 µM (inactive) | > 100 µM (inactive) | > 100 µM (inactive) |
| N=c1c2c(=S)n(-c3ccccc3)c(=S)n(-c3ccccc3)c2nc(SCCCN2CCN(c3cccc(Cl)c3)CC2)n1-c1ccccc1 | 50.7 µM (inactive) | > 100 µM (inactive) | 42.3 µM (inactive) | > 100 µM (inactive) | > 100 µM (inactive) | > 100 µM (inactive) | – | > 100 µM (inactive) | > 100 µM (inactive) | > 100 µM (inactive) | 92.7 µM (inactive) | – | – | – | 37.5 µM (inactive) | > 100 µM (inactive) |
| CCN(CC)CCOc1ccc(N2Cc3cc(OC)c(OC)cc3C2=O)cc1 | > 100 µM (inactive) | > 100 µM (inactive) | > 100 µM (inactive) | > 100 µM (inactive) | > 100 µM (inactive) | > 100 µM (inactive) | > 100 µM (inactive) | > 100 µM (inactive) | > 100 µM (inactive) | > 100 µM (inactive) | > 100 µM (inactive) | > 100 µM (inactive) | > 100 µM (inactive) | > 100 µM (inactive) | > 100 µM (inactive) | > 100 µM (inactive) |
| OC1COC2CC(Nc3ccccn3)OC12 (configuration not stated) | – | > 100 µM (inactive) | – | > 100 µM (inactive) | > 100 µM (inactive) | > 100 µM (inactive) | > 100 µM (inactive) | > 100 µM (inactive) | > 100 µM (inactive) | > 100 µM (inactive) | > 100 µM (inactive) | > 100 µM (inactive) | > 100 µM (inactive) | > 100 µM (inactive) | > 100 µM (inactive) | > 100 µM (inactive) |
| COc1ccc(/C=C2\CC3C4CC=C5C[C@@H](O)CC[C@]5(C)C4CC[C@]3(C)\C2=N\O)cc1OC (some centres not stated) | 5.4 µM (inactive) | 15.1 µM (inactive) | 29.2 µM (inactive) | 8.77 µM (inactive) | 4.98 µM (inactive) | 7.5 µM (inactive) | 19.6 µM (inactive) | 9.71 µM (inactive) | 8.97 µM (inactive) | 7.24 µM (inactive) | 4.1 µM (inactive) | 15.7 µM (inactive) | 70.6 µM (inactive) | 3.35 µM (inactive) | 5.09 µM (inactive) | – |
| O=C(O)C(Cc1ccc(O)cn1)NC(=O)C(F)(F)F (configuration not stated) | > 100 µM (inactive) | > 100 µM (inactive) | – | > 100 µM (inactive) | > 100 µM (inactive) | > 100 µM (inactive) | – | > 100 µM (inactive) | > 100 µM (inactive) | > 100 µM (inactive) | > 100 µM (inactive) | > 100 µM (inactive) | > 100 µM (inactive) | – | > 100 µM (inactive) | > 100 µM (inactive) |
| CC(=O)/N=C1/N(/C=C2\C(=O)Oc3ccccc3C2=O)C(=O)/C(=C/c2ccc(OC(C)=O)cc2)N1C | 9.18 µM (inactive) | – | – | > 100 µM (inactive) | > 100 µM (inactive) | > 100 µM (inactive) | > 100 µM (inactive) | > 100 µM (inactive) | > 100 µM (inactive) | > 100 µM (inactive) | > 100 µM (inactive) | > 100 µM (inactive) | – | > 100 µM (inactive) | – | > 100 µM (inactive) |
| S=C1SC(=N\c2ccccc2)/C(=N/c2ccccc2)N1c1ccccc1 | > 100 µM (inactive) | > 100 µM (inactive) | – | 27.9 µM (inactive) | > 100 µM (inactive) | > 100 µM (inactive) | > 100 µM (inactive) | > 100 µM (inactive) | 93.8 µM (inactive) | 31.3 µM (inactive) | 62.7 µM (inactive) | > 100 µM (inactive) | > 100 µM (inactive) | > 100 µM (inactive) | – | > 100 µM (inactive) |
